Results on 8 compounds are retold here after doi:10.1101/737510v1 (biorxiv, 2019).

Common to all, as to assay type: binding
In assay [1] the target is DCAF15-DDB1-DDA1 with RBM39(Δ150) (Homo sapiens, UniProt Q14498+Q66K64). Put plainly: TR-FRET ternary complex recruitment assay. In general terms: Time-resolved FRET reads energy transfer from a long-lived donor to a nearby acceptor.
Assay [2] has as its target DCAF15-DDB1(ΔBPB)-DDA1 (Homo sapiens, UniProt Q66K64). Put plainly: isothermal titration calorimetry. On the technique in general: In ITC the heat of successive injections is recorded.
In assay [3] the target is T1, RBM39(Δ150) (Homo sapiens, UniProt Q14498).
T1 sequence (Q14498 151-530): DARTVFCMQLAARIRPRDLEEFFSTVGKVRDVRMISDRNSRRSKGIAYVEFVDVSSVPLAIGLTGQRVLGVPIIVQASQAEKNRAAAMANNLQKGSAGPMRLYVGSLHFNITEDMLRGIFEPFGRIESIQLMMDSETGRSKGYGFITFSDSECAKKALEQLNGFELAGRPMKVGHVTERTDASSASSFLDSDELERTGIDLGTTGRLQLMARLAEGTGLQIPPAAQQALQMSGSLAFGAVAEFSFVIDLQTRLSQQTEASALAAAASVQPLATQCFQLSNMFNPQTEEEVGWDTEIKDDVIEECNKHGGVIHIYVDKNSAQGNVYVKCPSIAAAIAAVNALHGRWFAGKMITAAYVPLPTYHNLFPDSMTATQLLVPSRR
As to the kind of experiment: isothermal titration calorimetry.

In assay [4] the target is DCAF15-DDB1(ΔBPB)-DDA1 and RBM39(Δ150) mixture (Homo sapiens, UniProt Q14498+Q66K64). Put plainly: isothermal titration calorimetry.

As for `Cc1ccc(NS(=O)(=O)c2ccc(N)cc2)c2[nH]cc(C#N)c12` [compound 6, Compound 6], in assay [1], the EC50 was 3.82 µM.
On the same count and under the same terms, next, `Cc1ccc(NS(=O)(=O)c2ccc(CN)cc2)c2[nH]cc(C#N)c12` [compound 7, 4-(aminomethyl)-N-(3-cyano-4-methyl-1H-indol-7-yl)benzenesulfonamide]: 2.38 µM; `Cc1c[nH]c2c(NS(=O)(=O)c3ccc(S(=O)(=O)N(C)C)cc3)cccc12` [compound 4, N^1,N^1-dimethyl-N^4-(3-methyl-1H-indol-7-yl)benzene-1,4-disulfonamide]: 12.3 µM.
The same measure, in the same setting: to `Cc1c[nH]c2c(NS(=O)(=O)c3ccc(S(N)(=O)=O)cc3)cccc12` [compound 1, N-(3-methyl-1H-indol-7-yl)benzene-1,4-disulfonamide] belongs 14.3 µM; to `O=S(=O)(Nc1cccc2c(Cl)c[nH]c12)c1ccccc1` [compound 5, N-(3-chloro-1H-indol-7-yl)benzenesulfonamide], 38.1 µM.
Same read-out and setting: next, `N#Cc1c[nH]c2c(NS(=O)(=O)c3ccc(S(N)(=O)=O)cc3)cccc12` [compound 2, N-(3-cyano-1H-indol-7-yl)benzene-1,4-disulfonamide]: 1.21 µM.
Take `NS(=O)(=O)c1ccc(S(=O)(=O)Nc2cccc3c(Cl)c[nH]c23)cc1` [Indisulam]: the dissociation constant Kd in assay [2] is around 17 µM; in assay [3] it was above 50 µM; in assay [4] it was 0.187 µM. In assay [1], this compound had an EC50 of 3.4 µM.
In turn, `NS(=O)(=O)c1ccc(S(=O)(=O)Nc2cccc3cc[nH]c23)cc1` [compound 3, N-(1H-indol-7-yl)benzene-1,4-disulfonamide] returned an EC50 in assay [1] above 50 µM.

Broadly, the EC50 is the concentration needed to bring the measured effect to its halfway point. Usually Kd stands for a measure of binding affinity in units of concentration.
